# Results as given in patent US20170348337A1, “MULTIFUNCTIONAL MEMBRANE-ACTIVE AMINOGLYCOSIDE-PEPTIDE CONJUGATES” (priority 2014, published 2017).
# Read-outs that look alike come from different tables or passages of the source.
# Assays:
# [1] = tested on: P. acnes laboratory strain ATCC 6919; assay: P. acnes CFU assay, laboratory strain; format: cell-based, Propionibacterium acnes
# [2] = tested on: MCP-1, MDC, IP-10 and IL-12p40 in human monocytes; assay: chemokine/cytokine gene expression in P. acnes-stimulated monocytes (real-time PCR); format: cell-based; details: 24 hrs co-treatment
# Procedure: Peripheral blood mononuclear cells (PBMCs) were isolated from whole blood of normal healthy donors as approved by the Institutional Review Board at UCLA using Ficoll-Paque gradients (GE Healthcare, Piscataway, N.J.) and plated onto six-well tissue culture plates (20×10^6-30×10^6 per well) for 2 hours in RPMI 1640 medium (Invitrogen Life Technologies, Carlsbad, Calif.) supplemented with 1% fetal calf serum (Omega Scientific, Tarzana, Calif.). Nonadherent cells were removed by rigorously washing three times with RPMI. Adherent monocytes were stimulated (co-treated) with media or P. acnes in the presence of tobramycin or Pentobra in 10% fetal calf serum. P. acnes was used at an MOI of 0.5 and cells were cultured for 24 hours at 37° C.
# Monocytes were stimulated with media or P. acnes in the presence of tobramycin or Pentobra. Total RNA was isolated using Trizol reagent (Invitrogen, Carlsbad, Calif.) following manufacturer's protocol and treated with RNase-free DNase. RNA concentration and quality were determined by spectrophotometry. RNA samples were reverse-transcribed to cDNA using iScript cDNA synthesis kit (Bio-Rad, Hercules, Calif.). Reactions were done at 25° C. for 5 minutes, 42° C. for 30 minutes and 85° C. for 5 minutes. Real-time PCR was applied using iQ SYBR Green supermix (Bio-Rad). Forty cycles were carried out at 95° C. for 5 minutes, then 95° C. for 10 seconds, 55° C. for 20 seconds, 72° C. for 20 seconds. GAPDH was used as a control. Gene expression level was quantified by the comparative method 2-ΔΔCT.
# Monocytes were cultured and evaluated for cytokine and chemokine expression by ELISA and real time PCR after 24 hrs.
# E. coli Dh5α persisters = assay: persister cell plate killing assay; format: cell-based, Escherichia coli
# Procedure: (§1) Procedure for preparing S. aureus SA113 and E. coli Dh5α persister cells were based on previous protocols. Cells from freshly streaked agar plates were inoculated in 1 mL TSB and incubated 16 h at 37° C. in a shaker incubator to obtain stationary phase cultures. Non-persister cells were eliminated by adding ampicillin to a final concentration of 100 μg/mL, followed by 3 h incubation at 37° C.
# E. coli cells were pelleted (5000 rpm for 5 min), washed in M9 minimal media and resuspended in M9 minimal media to a final bacteria stock solution of 5×10^7 CFU/mL. 20 μL E. coli suspension was introduced into 180 μL M9 media containing various concentrations of antibiotic (Pentobra, tobramycin) in 96 well plates for a total of 10^6 CFU/well. The plates were sealed with parafilm, loaded onto microplate shakers and placed in a 37° C. incubator for 1.5 h. After incubation, 10-fold serial dilutions were made with M9 media. Half of each dilution (100 μL) was spotted onto LB agar plates and incubated overnight at 37° C. to yield visible colonies. The E. coli persister assays were performed in quadruplicate.
# (§2) The bactericidal effects of Pentobra against persistent bacteria were investigated with plate killing assays. […]
# [3] = tested on: P. acnes clinical isolates; assay: P. acnes CFU assay, clinical isolates; format: cell-based, Propionibacterium acnes
# [4] = tested on: S. aureus S113 persister cells; assay: persister cell plate killing assay; format: cell-based, Staphylococcus aureus; details: 1.5 h
# Procedure: as §1
# S. aureus cells were diluted 10× into 10 mM Pipes at pH 7.4 buffer for a bacteria stock solution of roughly 10^9 CFU/mL. 20 μL S. aureus suspension was introduced into 180 μL Pipes buffer containing various concentrations of antibiotic (Pentobra, tobramycin) in 96 well plates for a total of ˜10^8 CFU/well. The plates were sealed with parafilm, loaded onto microplate shakers and placed in 37° C. incubator for 1.5 h. After incubation, 10-fold serial dilutions were made in Pipes buffer. Half of each dilution (100 μL) was spotted onto LB agar plates and incubated overnight at 37° C. to yield visible colonies. The S. aureus persister assays were performed in triplicate. The data shown are averages from two independent trials and were representative of the three assays.
# as §2
# E. coli [5] = assay: antimicrobial activity (MIC) of P-L-A conjugates; format: cell-based
# [6] = aminoglycosides; cited from earlier work
# [7] = tested on: Vancomycin-Resistant Enterococci (VRE); assay: microbe, parasite or virus in culture; format: cell-based; details: Enterococcus, read-out: MIC
# Source text: (§3) Pentobra was screened against a broad panel of microbial pathogens, including strains of E. coli, MRSA, Klebsiella (Kleb), Acinetobacter (AcB), Vancomycin-Sensitive Enterococci (VSE) and Vancomycin-Resistant Enterococci (VRE), and specifically including E. faecalis samples. […] The experimenter reported the minimum inhibitory concentration (MIC) in mass units per unit volume (μg/mL) for each compound, and MIC data were converted into molar concentrations (μM) due to the large difference between the molecular weight of tobramycin (467.5 g/mol) and Pentobra (2277 g/mol).
# MRSA = assay: microbe, parasite or virus in culture; format: cell-based; details: isolate MRSA
# Source text: as §3
# Acinetobacter (AcB) = assay: microbe, parasite or virus in culture; format: cell-based; details: Acinetobacter; isolate AcB, PM1434; read-out: MIC
# Source text: as §3
# E. coli [8] = assay: microbe, parasite or virus in culture; format: cell-based; details: Escherichia coli
# Source text: as §3
# Klebsiella (Kleb) = assay: microbe, parasite or virus in culture; format: cell-based; details: Klebsiella; isolate Kleb, W6921701-1; read-out: MIC
# Source text: as §3
structure (smiles),measurement,setting,value
NC[C@H]1O[C@H](O[C@H]2[C@H](O)[C@@H](O[C@H]3O[C@H](CO)[C@@H](O)[C@H](N)[C@H]3O)[C@H](N)C[C@@H]2N)[C@H](N)C[C@@H]1O [tobramycin],killing activity,[1],not strongly bactericidal
same,reduction in CFU,"[1]; 52 μM, 3 h",less than ten
same,inhibition of IL-12p40 gene expression,[2],little to no inhibition
same,"inhibition of MCP-1 expression, comparison of the antibiotics",[2],more effective
same,P. acnes-induced IP-10 expression,[2]; p<0.001,completely abrogated
same,killing activity against persister cells,"E. coli Dh5α persisters; 1.5 h, entire range of tested concentrations",poor activity
same,activity against persisters at high concentration,E. coli Dh5α persisters; >50 μM,ineffective
same,antimicrobial activity,"[3]; isolates HL063PA2, HL110PA1, HL110PA4",did not exhibit significant antimicrobial activity
same,bactericidal activity,[3]; strain HL005PA1,strongly bactericidal
same,activity compared with Pentobra,[3]; strains HL053PA2 and HL043PA1,significantly less active
same,reduction in CFU,[4]; range of tested concentrations,less than one
same,killing activity against persister cells,[4]; varying concentrations,little susceptibility
same,MIC (μM) E. coli (mid-log),E. coli [5],6.25 μM
same,octanol→water partition coefficient Log P,[6],−3.41
same,MIC,"[7]; VRE, isolate F6541102, VRE",> 274 µM
same,MIC,"[7]; VRE, isolate H6926031, VRE*",68 µM
same,MIC,"[7]; VRE, isolate M6865034, VRE",> 274 µM
same,MIC,"[7]; VRE, isolate S3899836, VRE^? (second entry)",> 274 µM
same,MIC,"[7]; VRE, isolate VRE, 24670",> 274 µM
same,MIC,"[7]; VRE, isolate VRE, S3899836",> 274 µM
same,MIC,"[7]; isolate 24670, VRE^? (second entry)",> 274 µM
same,MIC,"MRSA; Staphylococcus aureus, F2806774, read-out: MIC",> 274 µM
same,MIC,MRSA; H2867813,>274 µM
same,MIC,Acinetobacter (AcB),34 µM
same,MIC,"E. coli [8]; ATCC25922, isolate ATCC 25922, Ecoli (second entry), read-out: MIC",2 µM
same,MIC,"E. coli [8]; isolate ATCC Ecoli, 25922 (first entry)",2 µM
same,MIC,"E. coli [8]; isolate Ecoli,YD461, read-out: MIC",34 µM
same,MIC,Klebsiella (Kleb),68 µM
